Calls of active or inactive are those of the source. The calls are words filed in the database; no cut-off is given here. Where a SMILES comes first, the peptide text is derived from it. The star is where a group is joined. 6FAM = O=C1OC2(c3ccc(O)cc3Oc3cc(O)ccc32)c2cc(C(=O)*)ccc21; Stearoyl = CCCCCCCCCCCCCCCCCC(=O)*
Tests used:
[1] = molecular target: Receptor tyrosine-protein kinase erbB-2 (Homo sapiens) (UniProt P04626); test: Binding affinity to HER2 extracellular domain (unknown origin) at 25 to 100 uM by SPR analysis
MCF7 = test: Antiproliferative activity against human MCF7 cells after 72 hrs by CellTiter-Glo assay; type: functional, cell-based; details: MCF7, 72 h
A549 = test: Antiproliferative activity against human A549 cells after 72 hrs by CellTiter-Glo assay; type: functional, cell-based; details: A549, 72 h
[2] = molecular target: Receptor tyrosine-protein kinase erbB-2 (Homo sapiens) (UniProt P04626); test: Inhibition of FITC-aminocaproic acid-Arg-(S)Anapa-Phe-OH binding to HER2 domain-4 in human BT474 cells at 0.5 to 200 uM after 45 mins by fluorescence assay; type: cell-based
BT-474 = test: Antiproliferative activity against human BT474 cells after 72 hrs by CellTiter-Glo assay; type: functional, cell-based; details: BT-474, 72 h
Calu-3 = test: Antiproliferative activity against human Calu3 cells after 72 hrs by CellTiter-Glo assay; type: functional, cell-based; details: Calu-3, 72 h
[3] = Half life in human serum by HPLC analysis; type: ADME, cell-free
[4] = molecular target: Receptor tyrosine-protein kinase erbB-2 (Homo sapiens) (UniProt P04626); test: Inhibition of Stearic acid-Gly-Arg-(S)Anapa-Phe-Asp-Gly-Gly-Gly-Lys-OH (FAM Lys side chain) binding to HER2 domain-4 in human BT474 cells after 45 mins by fluorescence assay; type: cell-based
[5] = molecular target: Receptor tyrosine-protein kinase erbB-2 (Homo sapiens) (UniProt P04626); test: Binding affinity to HER2 extracellular domain (unknown origin) by SPR analysis
MCF-10A = test: Antiproliferative activity against human MCF10A cells after 72 hrs by CellTiter-Glo assay; type: cell-based
[6] = molecular target: Receptor tyrosine-protein kinase erbB-2 (Homo sapiens) (UniProt P04626); test: Inhibition of Stearic acid-Gly-Arg-(S)Anapa-Phe-Asp-Gly-Gly-Gly-Lys-OH (FAM Lys side chain) binding to HER2 domain-4 in human BT474 cells at 0.5 to 100 uM after 1 hr by DAPI staining based microscopic method; type: cell-based
[7] = molecular target: Receptor tyrosine-protein kinase erbB-2 (Homo sapiens) (UniProt P04626); test: Binding affinity to HER2 in human BT474 cells assessed as inhibition of HER2:HER3 heterodimerization at 1 to 5 uM after 48 hrs by DAPI staining based proximity ligation assay; type: cell-based
[8] = Stability in human serum after 24 hrs by MALDI-TOF-MS analysis; type: ADME, cell-free
[9] = Stability in human serum after 24 hrs by HPLC analysis; type: ADME, cell-free
[10] = molecular target: Receptor tyrosine-protein kinase erbB-2 (Homo sapiens) (UniProt P04626); test: Inhibition of FITC-aminocaproic acid-Arg-(S)Anapa-Phe-OH binding to HER2 domain-4 in human BT474 cells after 45 mins by fluorescence assay; type: cell-based
[11] = molecular target: Receptor tyrosine-protein kinase erbB-2 (Homo sapiens) (UniProt P04626); test: Binding affinity to HER2 in human BT474 cells assessed as receptor internalization at 0.5 uM after 2 hrs by DAPI/Lysotracker staining based microscopic method; type: cell-based
[12] = molecular target: Receptor tyrosine-protein kinase erbB-2 (Homo sapiens) (UniProt P04626); test: Binding affinity to HER2 in human BT474 cells at 0.5 uM after 30 mins by DAPI staining based microscopic method; type: cell-based

Receptor tyrosine-protein kinase erbB-2 (Homo sapiens), sequence (P04626 whole entry, the tested form may be a part): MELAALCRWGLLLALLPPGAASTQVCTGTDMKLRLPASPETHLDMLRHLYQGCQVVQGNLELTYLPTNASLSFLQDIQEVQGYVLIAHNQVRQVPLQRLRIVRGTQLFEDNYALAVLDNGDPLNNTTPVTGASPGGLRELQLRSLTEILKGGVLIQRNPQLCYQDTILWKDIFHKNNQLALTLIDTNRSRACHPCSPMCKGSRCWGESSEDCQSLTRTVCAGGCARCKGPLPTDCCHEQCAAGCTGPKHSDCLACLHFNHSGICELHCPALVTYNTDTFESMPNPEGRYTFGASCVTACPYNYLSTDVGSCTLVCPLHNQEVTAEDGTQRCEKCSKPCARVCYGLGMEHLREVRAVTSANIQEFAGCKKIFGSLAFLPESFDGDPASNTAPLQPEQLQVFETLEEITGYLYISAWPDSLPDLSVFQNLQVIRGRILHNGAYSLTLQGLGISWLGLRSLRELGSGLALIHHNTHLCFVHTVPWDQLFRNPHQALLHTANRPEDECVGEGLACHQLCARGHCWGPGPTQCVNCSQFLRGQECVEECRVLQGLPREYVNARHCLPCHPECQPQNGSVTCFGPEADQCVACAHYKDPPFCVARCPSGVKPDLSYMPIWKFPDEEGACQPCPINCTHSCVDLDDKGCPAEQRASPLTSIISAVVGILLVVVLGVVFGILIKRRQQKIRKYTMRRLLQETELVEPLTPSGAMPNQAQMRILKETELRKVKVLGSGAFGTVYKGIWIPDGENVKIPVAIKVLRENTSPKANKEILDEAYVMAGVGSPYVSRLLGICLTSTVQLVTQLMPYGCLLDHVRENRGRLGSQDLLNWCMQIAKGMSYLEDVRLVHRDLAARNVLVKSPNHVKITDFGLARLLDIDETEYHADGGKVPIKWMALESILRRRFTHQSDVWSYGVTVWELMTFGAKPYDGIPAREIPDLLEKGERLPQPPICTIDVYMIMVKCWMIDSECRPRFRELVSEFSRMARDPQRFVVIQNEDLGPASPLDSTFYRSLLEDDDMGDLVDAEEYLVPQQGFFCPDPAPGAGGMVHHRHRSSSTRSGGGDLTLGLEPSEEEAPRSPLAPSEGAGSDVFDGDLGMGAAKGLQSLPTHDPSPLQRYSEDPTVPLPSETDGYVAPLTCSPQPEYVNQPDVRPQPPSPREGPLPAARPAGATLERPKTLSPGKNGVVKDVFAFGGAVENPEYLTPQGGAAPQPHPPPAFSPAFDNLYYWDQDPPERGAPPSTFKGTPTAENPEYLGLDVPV

Structure (SMILES) | IC50 (MCF7) [µM] | IC50 (A549) [nM] | IC50 (BT-474) [nM] | IC50 (Calu-3) [nM] | IC50 (MCF-10A) [µM] | also measured
CCCCCCCCCCCCCCCCCC(=O)N[C@@H](CCCNC(=N)N)C(=O)N[C@@H](CC(=O)N[C@@H](CCCCN)C(=O)O)c1cccc2ccccc12 |  |  | 1200 |  |  | 
CCCCCCCCCCCCCCCCCC(=O)N[C@@H](CCCNC(=N)N)C(=O)N[C@@H](CC(=O)N[C@@H](Cc1ccccc1)C(=O)O)c1cccc2ccccc12 | > 35 | 1170 | 1000 | 1460 | > 35 | half-life [3]: 300 min; inhibition [4]: Dose-dependent effect; Activity [5]: Dose-dependent effect; inhibition [6]: Active; inhibition [7]: Active; Stability [8]: Stable; Stability [9]: Stable; inhibition [10]: Dose-dependent effect
CCCCCCCCCCCCCCCCCC(=O)NCC(=O)N[C@@H](CCCNC(=N)N)C(=O)N[C@@H](C)C(=O)N[C@@H](C)C(=O)N[C@@H](CC(C)C)C(=O)NCC(=O)NCC(=O)NCC(=O)N[C@@H](CCCCNC(=O)c1ccc2c(c1)C1(OC2=O)c2ccc(O)cc2Oc2cc(O)ccc21)C(=O)O (Stearoyl-GRAALGGGK(6FAM)-OH) |  |  |  |  |  | Activity [11]: inactive; Activity [12]: inactive
CCCCCCCCCCCCCCCC(=O)N[C@@H](CCCNC(=N)N)C(=O)N[C@@H](CC(=O)N[C@@H](Cc1ccccc1)C(=O)O)c1cccc2ccccc12 | > 35 | 1010 | 1400 | 1560 | > 35 | 

Further lines, with some results ahead:

IC50 (MCF7) [µM] | IC50 (A549) [nM] | IC50 (BT-474) [nM] | IC50 (Calu-3) [nM] | Structure (SMILES) | IC50 (MCF-10A) [µM] | also measured
> 35 | > 35000 | > 35000 | > 35000 | NCCCC[C@H](N)C(=O)Nc1cccc(-c2ccccc2)c1CCC(=O)N[C@@H](Cc1ccccc1)C(=O)O |  | Activity [1]: inactive; inhibition [2]: inactive
 |  | 1400 |  | CCCCCCCCCCCCCCCC(=O)N[C@@H](CCCNC(=N)N)C(=O)N[C@@H](CC(=O)N[C@@H](CCCCN)C(=O)O)c1cccc2ccccc12 |  | 
